Test results from article PMC6758606, “Novel 2-substituted-benzimidazole-6-sulfonamides as carbonic anhydrase inhibitors: synthesis, biological evaluation against isoforms I, II, IX and XII and molecular docking studies” (Journal of Enzyme Inhibition and Medicinal Chemistry, 2019).

What was measured:
Assay type in all cases: biochemical
hCA IX = biological target: T1, hCA IX (Homo sapiens, UniProt Q16790); experiment: stopped-flow CO2 hydrase assay, hCA IX; details: for Ki: recombinant enzyme, stopped-flow CO2 hydrase assay, mean from 3 different assays, errors ± 5–10%; for SR IX/II (Selectivity Ratio): selectivity for inhibiting hCA IX over hCA II (values equal Ki hCA II / Ki hCA IX)
T1 construct: made in house
Description: (§1) An Applied Photophysics stopped-flow instrument has been used for assaying the CA-catalysed CO2 hydration activity. Phenol red (at a concentration of 0.2 mM) has been used as indicator, working at the absorbance maximum of 557 nm, with 20 mM Hepes (pH 7.5) as buffer, and 20 mM Na2SO4 (for maintaining constant the ionic strength), following the initial rates of the CA-catalysed CO2 hydration reaction for a period of 10–100 s. CO2 concentrations ranged from 1.7 to 17 mM for the determining inhibition constants. […] Uncatalyzed rates were determined in the same manner and subtracted from the total observed rates. Stock solutions of inhibitor (0.1 mM) were prepared in buffer with a maximum 3% DMSO, and dilutions up to 0.01 nM were done with the assay buffer. Inhibitor and enzyme solutions were preincubated for 15 min at room temperature prior to assay, in order to allow for the formation of the E–I complex. The inhibition constants were obtained by nonlinear least-squares methods using PRISM 3 and the Cheng-Prusoff equation, as reported earlier, and represent the mean from at least three different determinations. All CA isoforms were recombinant ones obtained in-house as reported earlier.
(§2) AAZ 1 was used as the standard drug in the assay.

hCA XII = biological target: T2, hCA XII (Homo sapiens, UniProt O43570); experiment: stopped-flow CO2 hydrase assay, hCA XII; details: for Ki: recombinant enzyme, stopped-flow CO2 hydrase assay, mean from 3 different assays, errors ± 5–10%; for SR XII/II (Selectivity Ratio): selectivity for inhibiting hCA XII over hCA II (values equal Ki hCA II / Ki hCA XII)
T2 construct: made in house
Description: as §1, §2

hCA II = biological target: T3, hCA II (Homo sapiens, UniProt P00918); experiment: stopped-flow CO2 hydrase assay, hCA II; details: recombinant enzyme, mean from 3 different assays, errors ± 5–10%
T3 construct: made in house
Description: as §1, §2

hCA I = biological target: T4, hCA I (Homo sapiens, UniProt P00915); experiment: stopped-flow CO2 hydrase assay, hCA I; details: recombinant enzyme, mean from 3 different assays, errors ± 5–10%
T4 construct: made in house
Description: as §1, §2

T2 sequence (O43570 25-354): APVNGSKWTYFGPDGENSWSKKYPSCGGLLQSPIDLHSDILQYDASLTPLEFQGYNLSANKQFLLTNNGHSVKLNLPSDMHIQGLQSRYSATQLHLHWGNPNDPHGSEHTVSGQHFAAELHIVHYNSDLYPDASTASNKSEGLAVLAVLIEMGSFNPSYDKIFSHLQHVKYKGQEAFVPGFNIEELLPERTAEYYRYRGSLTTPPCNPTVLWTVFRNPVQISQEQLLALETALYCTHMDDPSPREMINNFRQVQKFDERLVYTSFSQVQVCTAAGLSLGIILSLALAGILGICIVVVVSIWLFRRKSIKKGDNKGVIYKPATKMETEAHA
T4 sequence (P00915 whole entry): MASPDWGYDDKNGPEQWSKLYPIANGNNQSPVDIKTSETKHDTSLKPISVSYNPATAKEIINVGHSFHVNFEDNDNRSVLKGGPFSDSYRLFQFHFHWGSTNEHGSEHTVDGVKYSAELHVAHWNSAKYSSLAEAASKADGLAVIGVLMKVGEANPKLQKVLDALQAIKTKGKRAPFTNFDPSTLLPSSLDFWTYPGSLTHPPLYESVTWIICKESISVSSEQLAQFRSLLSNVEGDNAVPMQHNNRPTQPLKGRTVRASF

Row | SMILES | Ki (hCA IX) [nM] | SR IX/II (Selectivity Ratio) (hCA IX) | Ki (hCA XII) [nM] | SR XII/II (Selectivity Ratio) (hCA XII) | Ki (hCA II) [nM] | Ki (hCA I) [nM]
1 | NS(=O)(=O)c1ccc2nc(-c3ccc(O)cc3)[nH]c2c1 [Compound 6, 2-(4-Hydroxyphenyl)-1H-benzo[d]imidazole-6-sulfonamide] | 17.4 | 5.8 | 44.1 | 2.3 | 101 | 238
2 | NS(=O)(=O)c1ccc2nc(-c3ccccc3)[nH]c2c1 [Compound 9, 2-Phenyl-1H-benzo[d]imidazole-6-sulfonamide] | 47.6 | 2.2 | 78.9 | 1.3 | 104 | 92.8
3 | COC(=O)c1ccc(-c2nc3ccc(S(N)(=O)=O)cc3[nH]2)cc1 [Compound 10, Methyl 4-(6-sulfamoyl-1H-benzo[d]imidazol-2-yl)benzoate] | 29.6 | 6.3 | 72.2 | 2.6 | 185 | 208
4 | NS(=O)(=O)c1ccc2nc(-c3ccc(O)c(O)c3)[nH]c2c1 [Compound 12, 2-(3,4-Dihydroxyphenyl)-1H-benzo[d]imidazole-6-sulfonamide] | 41.6 | 1.9 | 8.5 |  | 79 | 169
5 | COC(=O)c1cc(-c2nc3ccc(S(N)(=O)=O)cc3[nH]2)ccc1O [Compound 13, Methyl 2-hydroxy-5-(6-sulfamoyl-1H-benzo[d]imidazol-2-yl)benzoate] | 2.2 | 23.1 | 22.3 | 2.3 | 50.8 | 126
6 | NS(=O)(=O)c1ccc2nc(-c3ccc(O)c(C(=O)O)c3)[nH]c2c1 [Compound 14, 2-hydroxy-5-(6-sulfamoyl-1H-benzo[d]imidazol-2-yl)benzoic acid] | 34.2 | 2.0 | 3.8 | 18.1 | 68.6 | 95.6
7 | CCNS(=O)(=O)c1ccc2nc(-c3ccc(O)c(C(=O)OC)c3)[nH]c2c1 [Compound 15, Methyl 5-(6-(N-ethylsulfamoyl)-1H-benzo[d]imidazol-2-yl)-2-hydroxybenzoate] | 390 |  | 813 |  | 8920 | > 10000
8 | NS(=O)(=O)c1ccc2nc(CCc3ccc(O)c(C(=O)O)c3)[nH]c2c1 [Compound 18, 2-Hydroxy-5-(2-(6-sulfamoyl-1H-benzo[d]imidazol-2-yl)ethyl)benzoic acid] | 7.6 | 3.3 | 4.2 | 5.9 | 24.8 | 441
9 | NC(=O)c1ccc2nc(-c3ccc(O)c(C(=O)O)c3)[nH]c2c1 [Compound 19, 5-(6-Carbamoyl-1H-benzo[d]imidazol-2-yl)-2-hydroxybenzoic acid] | > 10000 |  | > 10000 |  | > 10000 | > 10000

The remaining compounds from weak to strong by Ki (hCA IX), led by results:

Row | Ki (hCA IX) [nM] | SR IX/II (Selectivity Ratio) (hCA IX) | Ki (hCA XII) [nM] | SR XII/II (Selectivity Ratio) (hCA XII) | Ki (hCA II) [nM] | Ki (hCA I) [nM] | SMILES
10 | 665 |  | 464 |  | 7580 | > 10000 | CCNS(=O)(=O)c1ccc2nc(-c3ccc(O)c(C(=O)O)c3)[nH]c2c1 [Compound 16, 5-(6-(N-ethylsulfamoyl)-1H-benzo[d]imidazol-2-yl)-2-hydroxybenzoic acid]
11 | 73.9 | 1.2 | 63.8 | 1.4 | 91.9 | 442 | NS(=O)(=O)c1ccc2nc(Cc3ccc(O)cc3)[nH]c2c1 [Compound 7, 2-(4-Hydroxybenzyl)-1H-benzo[d]imidazole-6-sulfonamide]
12 | 64.3 | 2.1 | 57 | 2.3 | 133 | 97.6 | NS(=O)(=O)c1ccc2nc(-c3ccc(C(=O)O)cc3)[nH]c2c1 [Compound 11, 4-(6-Sulfamoyl-1H-benzo[d]imidazol-2-yl)benzoic acid]
13 | 14.4 | 3.3 | 9.8 | 4.9 | 47.8 | 214 | NS(=O)(=O)c1ccc2nc(CCc3ccc(O)cc3)[nH]c2c1 [Compound 8, 2-(4-Hydroxyphenethyl)-1H-benzo[d]imidazole-6-sulfonamide]
14 | 5.9 | 8.9 | 7.9 | 6.7 | 52.7 | 427 | COC(=O)c1cc(CCc2nc3ccc(S(N)(=O)=O)cc3[nH]2)ccc1O [Compound 17, Methyl 2-hydroxy-5-(2-(6-sulfamoyl-1H-benzo[d]imidazol-2-yl)ethyl)benzoate]
